Experimental data taken from patent US20110287059A1, “HONEY ANALYSIS” (COMVITA NEW ZEALAND LIMITED, priority 2008, published 2011).

Experiment: Antioxidant activity by ABTS radical assay (Trolox Equivalent Antioxidant Capacity)
Type: biochemical
Conditions: standard
Experimental: Antioxidant activity was determined by the ABTS assay using a spectrophotometric method for antioxidant activity using the ABTS radical assay (expressed as Trolox Equivalent Antioxidant Capacity) based on the method of Miller & Rice-Evans (Miller, N.J.; Rice-Evans, C.A. 1997: Factors influencing the antioxidant activity determined by the ABTS+radical cation assay. Free Radical Research 26(3): 195-199). All samples were diluted with warm water as required to bring into the appropriate range for the assay.

Structure (SMILES): COc1ccccc1C(=O)O [2-methoxybenzoic, 2-methoxybenzoic acid]
- Antioxidant Activity by ABTS Assay, Average (80 mg/kg): 51.8 μmole TEAC/100 g

Structure (SMILES): O=C(O)c1cc(O)c(O)c(O)c1 [gallic acid]
- Antioxidant Activity by ABTS Assay, Average (700 mg/kg): 1695.4 μmole TEAC/100 g

Structure (SMILES): COC(=O)c1cc(OC)c(O)c(OC)c1 [methylsyringate, methyl syringate]
- Antioxidant Activity by ABTS Assay, Average (290 mg/kg): 85.1 μmole TEAC/100 g

Structure (SMILES): COc1cc(C(=O)O)cc(OC)c1O [syringic acid]
- Antioxidant Activity by ABTS Assay, Average (760 mg/kg): 499.6 μmole TEAC/100 g
